Reference: PubChem BioAssay AID1963845 (Molecular Pharmacology Branch, DTP, NCI, 2024)

Test system: 429239-143-T-J1-PDC complex spheroid viability
Assay: Anticancer human tumor 429239-143-T-J1-PDC patient-derived small cell lung carcinoma cell line growth inhibition [POLQ]
Details: for IC50: curve of first compound; for viability, T/C: stronger effect = lower value
Summary of the method: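 PDC + HUVEC + MSC complex spheroids; POLQ inhibitors ± partner drugs; top conc. at/near clinical Cmax, else 10 microM (SN-38 1 microM), half-log dilutions; 37 degrees C, 5% CO2.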

[1] = second compound 0.0316 µM, first compound 0.0316 µM
[2] = second compound 0.0316 µM, first compound 0.1 µM
[3] = second compound 0.0316 µM, first compound 0.316 µM
[4] = second compound 0.0316 µM, first compound 1 µM
[5] = second compound 0.0316 µM, first compound 3.16 µM
[6] = second compound 0.0316 µM, first compound 10 µM
[7] = second compound 0.1 µM, first compound 0.0316 µM
[8] = second compound 0.1 µM, first compound 0.1 µM
[9] = second compound 0.1 µM, first compound 0.316 µM
[10] = second compound 0.1 µM, first compound 1 µM
[11] = second compound 0.1 µM, first compound 3.16 µM
[12] = second compound 0.1 µM, first compound 10 µM
[13] = second compound 0.316 µM, first compound 0.0316 µM
[14] = second compound 0.316 µM, first compound 0.1 µM
[15] = second compound 0.316 µM, first compound 0.316 µM
[16] = second compound 0.316 µM, first compound 1 µM
[17] = second compound 0.316 µM, first compound 3.16 µM
[18] = second compound 0.316 µM, first compound 10 µM
[19] = second compound 1 µM, first compound 0.0316 µM
[20] = second compound 1 µM, first compound 0.1 µM
[21] = second compound 1 µM, first compound 0.316 µM
[22] = second compound 1 µM, first compound 1 µM
[23] = second compound 1 µM, first compound 3.16 µM
[24] = second compound 1 µM, first compound 10 µM
[25] = second compound 3.16 µM, first compound 0.0316 µM
[26] = second compound 3.16 µM, first compound 0.1 µM
[27] = second compound 3.16 µM, first compound 0.316 µM
[28] = second compound 3.16 µM, first compound 1 µM
[29] = second compound 3.16 µM, first compound 3.16 µM
[30] = second compound 3.16 µM, first compound 10 µM
[31] = second compound 10 µM, first compound 0.0316 µM
[32] = second compound 10 µM, first compound 0.1 µM
[33] = second compound 10 µM, first compound 0.316 µM
[34] = second compound 10 µM, first compound 1 µM
[35] = second compound 10 µM, first compound 3.16 µM
[36] = second compound 10 µM, first compound 10 µM
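Also: luminescence signal used as surrogate measure of viable cells; spheroids exposed to compounds for seven days before readout.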
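For viability, T/C in this document: 100% = DMSO vehicle control viability as luminescence relative to vehicle.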

## CC(C)n1c(=O)n(C)c2cnc3cc(F)c(-c4ccc(OCCCN5CCCCC5)nc4)cc3c21 + Cc1cccc(N(C)C(=O)C2C(O)CCN2c2nc(C)cc(C(F)(F)F)c2C#N)c1
Second compound 0.0316 µM
  IC50: > 10000 nM
Second compound 0.1 µM
  IC50: > 10000 nM
Second compound 0.316 µM
  IC50: > 10000 nM
Second compound 1 µM
  IC50: > 10000 nM
Second compound 3.16 µM
  IC50: > 10000 nM
Second compound 10 µM
  IC50: > 10000 nM
[1]
  viability, T/C: 104%
[2]
  viability, T/C: 83%
[3]
  viability, T/C: 92.2%
[4]
  viability, T/C: 78.4%
[5]
  viability, T/C: 78.8%
[6]
  viability, T/C: 72.5%
[7]
  viability, T/C: 90.5%
[8]
  viability, T/C: 90.3%
[9]
  viability, T/C: 91.7%
[10]
  viability, T/C: 86.5%
[11]
  viability, T/C: 77.7%
[12]
  viability, T/C: 75.3%
[13]
  viability, T/C: 85%
[14]
  viability, T/C: 93.9%
[15]
  viability, T/C: 72.3%
[16]
  viability, T/C: 92.6%
[17]
  viability, T/C: 81.8%
[18]
  viability, T/C: 69.7%
[19]
  viability, T/C: 81.8%
[20]
  viability, T/C: 95.7%
[21]
  viability, T/C: 94.2%
[22]
  viability, T/C: 73.4%
[23]
  viability, T/C: 75.6%
[24]
  viability, T/C: 62.6%
[25]
  viability, T/C: 89.2%
[26]
  viability, T/C: 108%
[27]
  viability, T/C: 88.8%
[28]
  viability, T/C: 87.8%
[29]
  viability, T/C: 77.6%
[30]
  viability, T/C: 64.7%
[31]
  viability, T/C: 83.3%
[32]
  viability, T/C: 88.9%
[33]
  viability, T/C: 83.3%
[34]
  viability, T/C: 89.1%
[35]
  viability, T/C: 83.4%
[36]
  viability, T/C: 53.6%

## CC1COCCN1c1cc(C2(O)CC3CCC(C2)O3)c2cnn(-c3ccn[nH]3)c2n1 (stereo unspecified) + COC1C(OC(N)=O)C(O)C(Oc2ccc3c(O)c(NC(=O)c4ccc(O)c(CC=C(C)C)c4)c(=O)oc3c2C)OC1(C)C
Second compound 0.0316 µM
  IC50: 48.7 nM
Second compound 0.1 µM
  IC50: 63.6 nM
Second compound 0.316 µM
  IC50: 49 nM
Second compound 1 µM
  IC50: 65.9 nM
Second compound 3.16 µM
  IC50: 57.8 nM
Second compound 10 µM
  IC50: 43.2 nM
[1]
  viability, T/C: 60.6%
[2]
  viability, T/C: 32.4%
[3]
  viability, T/C: 15.4%
[4]
  viability, T/C: 9.3%
[5]
  viability, T/C: 7.39%
[6]
  viability, T/C: 6.59%
[7]
  viability, T/C: 69.8%
[8]
  viability, T/C: 37.4%
[9]
  viability, T/C: 16%
[10]
  viability, T/C: 9.73%
[11]
  viability, T/C: 7.67%
[12]
  viability, T/C: 5.38%
[13]
  viability, T/C: 62.4%
[14]
  viability, T/C: 28.4%
[15]
  viability, T/C: 18.1%
[16]
  viability, T/C: 9.94%
[17]
  viability, T/C: 6.92%
[18]
  viability, T/C: 5.8%
[19]
  viability, T/C: 67.5%
[20]
  viability, T/C: 39.9%
[21]
  viability, T/C: 19.2%
[22]
  viability, T/C: 7.99%
[23]
  viability, T/C: 7.48%
[24]
  viability, T/C: 5.25%
[25]
  viability, T/C: 69.7%
[26]
  viability, T/C: 31.6%
[27]
  viability, T/C: 17.1%
[28]
  viability, T/C: 8.72%
[29]
  viability, T/C: 6.53%
[30]
  viability, T/C: 5.31%
[31]
  viability, T/C: 56.7%
[32]
  viability, T/C: 32%
[33]
  viability, T/C: 18.1%
[34]
  viability, T/C: 8.41%
[35]
  viability, T/C: 9.41%
[36]
  viability, T/C: 5.38%

## CC1COCCN1c1cc(-c2ccnn2C)c2ccnc(-c3ccn[nH]3)c2n1 (stereo unspecified) + COC1C(OC(N)=O)C(O)C(Oc2ccc3c(O)c(NC(=O)c4ccc(O)c(CC=C(C)C)c4)c(=O)oc3c2C)OC1(C)C
Second compound 0.0316 µM
  IC50: 82.2 nM
Second compound 0.1 µM
  IC50: 76.7 nM
Second compound 0.316 µM
  IC50: 70.9 nM
Second compound 1 µM
  IC50: 116 nM
Second compound 3.16 µM
  IC50: 104 nM
Second compound 10 µM
  IC50: 89.1 nM
[1]
  viability, T/C: 85.1%
[2]
  viability, T/C: 40.2%
[3]
  viability, T/C: 27.5%
[4]
  viability, T/C: 12.9%
[5]
  viability, T/C: 10.1%
[6]
  viability, T/C: 8.09%
[7]
  viability, T/C: 71.9%
[8]
  viability, T/C: 42%
[9]
  viability, T/C: 28.8%
[10]
  viability, T/C: 13.6%
[11]
  viability, T/C: 8.87%
[12]
  viability, T/C: 10.7%
[13]
  viability, T/C: 75.5%
[14]
  viability, T/C: 35.2%
[15]
  viability, T/C: 28.5%
[16]
  viability, T/C: 13.1%
[17]
  viability, T/C: 10.9%
[18]
  viability, T/C: 9.18%
[19]
  viability, T/C: 79.2%
[20]
  viability, T/C: 53.4%
[21]
  viability, T/C: 27.6%
[22]
  viability, T/C: 15.6%
[23]
  viability, T/C: 10.5%
[24]
  viability, T/C: 10.6%
[25]
  viability, T/C: 83.8%
[26]
  viability, T/C: 50.1%
[27]
  viability, T/C: 29.3%
[28]
  viability, T/C: 14.2%
[29]
  viability, T/C: 10.6%
[30]
  viability, T/C: 9.32%
[31]
  viability, T/C: 72.7%
[32]
  viability, T/C: 46.7%
[33]
  viability, T/C: 28%
[34]
  viability, T/C: 13.1%
[35]
  viability, T/C: 9.4%
[36]
  viability, T/C: 9.29%
